Earlier results on one compound are cited in patent US20220313684A1, “PHARMACEUTICAL COMPOSITION COMPRISING IRINOTECAN FREE BASE FOR ORAL ADMINISTRATION” (DAE HWA PHARMA. CO., LTD., priority 2019, published 2022).

The conditions of the data set: oral administration of irinotecan; reported (EP 2328557).

Consider `CCc1c2c(nc3ccc(OC(=O)N4CCC(N5CCCCC5)CC4)cc13)-c1cc3c(c(=O)n1C2)COC(=O)[C@]3(O)CC` [irinotecan, (S)-4,11-diethyl-3,4,12,14-tetrahydro-4-hydroxy-3,14-dioxo-1H-pyrano[3′,4′:6,7]-indolizino[1,2-b]quinolin-9-yl [1,4′bipiperidine]-1′-carboxylate], for which the “bioavailability upon oral administration” value is 9%.
